The results in this text go back to patent publication US10758534B2 (Vertex Pharmaceuticals Incorporated, priority 2014, dated 2020).

T1 sequence (P13569 with tags, fused parts or gaps DEL508-508): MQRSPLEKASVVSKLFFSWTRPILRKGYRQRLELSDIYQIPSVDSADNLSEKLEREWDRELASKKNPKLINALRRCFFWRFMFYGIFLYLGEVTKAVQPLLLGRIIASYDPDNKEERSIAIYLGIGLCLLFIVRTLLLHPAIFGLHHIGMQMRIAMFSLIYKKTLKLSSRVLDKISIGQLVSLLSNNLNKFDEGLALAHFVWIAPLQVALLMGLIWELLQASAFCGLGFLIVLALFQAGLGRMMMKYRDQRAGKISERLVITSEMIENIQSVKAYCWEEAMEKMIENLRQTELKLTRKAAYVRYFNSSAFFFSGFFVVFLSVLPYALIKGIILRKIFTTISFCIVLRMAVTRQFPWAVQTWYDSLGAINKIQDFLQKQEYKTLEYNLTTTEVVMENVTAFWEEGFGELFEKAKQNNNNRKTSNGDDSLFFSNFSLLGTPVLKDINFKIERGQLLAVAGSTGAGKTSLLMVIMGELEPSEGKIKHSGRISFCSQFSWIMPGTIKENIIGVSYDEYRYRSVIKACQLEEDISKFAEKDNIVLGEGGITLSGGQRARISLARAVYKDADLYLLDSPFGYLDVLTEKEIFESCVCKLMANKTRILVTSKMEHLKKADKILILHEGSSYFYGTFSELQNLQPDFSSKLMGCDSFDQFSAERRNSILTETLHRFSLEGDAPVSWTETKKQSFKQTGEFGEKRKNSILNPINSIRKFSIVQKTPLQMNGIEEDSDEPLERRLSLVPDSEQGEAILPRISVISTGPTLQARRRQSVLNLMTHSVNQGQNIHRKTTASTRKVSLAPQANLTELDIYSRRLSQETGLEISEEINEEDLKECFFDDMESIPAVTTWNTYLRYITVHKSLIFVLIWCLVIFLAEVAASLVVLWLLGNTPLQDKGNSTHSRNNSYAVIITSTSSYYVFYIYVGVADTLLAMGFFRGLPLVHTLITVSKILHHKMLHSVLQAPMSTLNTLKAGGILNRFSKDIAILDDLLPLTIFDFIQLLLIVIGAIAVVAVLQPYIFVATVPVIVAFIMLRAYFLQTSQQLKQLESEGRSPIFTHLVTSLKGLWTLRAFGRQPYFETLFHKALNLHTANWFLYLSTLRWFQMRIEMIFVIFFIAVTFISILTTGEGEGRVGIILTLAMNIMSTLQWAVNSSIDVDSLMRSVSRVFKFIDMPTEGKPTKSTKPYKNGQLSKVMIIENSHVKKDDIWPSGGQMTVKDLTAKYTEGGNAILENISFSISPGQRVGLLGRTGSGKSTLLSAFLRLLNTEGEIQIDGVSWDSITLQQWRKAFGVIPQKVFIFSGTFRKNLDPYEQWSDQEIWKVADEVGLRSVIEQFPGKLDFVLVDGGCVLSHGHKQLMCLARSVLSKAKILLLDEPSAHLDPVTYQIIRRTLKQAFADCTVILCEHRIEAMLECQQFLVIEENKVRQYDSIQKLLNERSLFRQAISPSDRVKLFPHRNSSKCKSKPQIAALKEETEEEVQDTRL

One experiment addresses T1, F508del (Homo sapiens, UniProt P13569, DEL508-508).
T1 construct: expressed in transfected cells
Briefly: Protocol 2: FRET membrane potential optical assay (VIPR), identification of correction compounds. The settings on record: F508del CFTR modulator activity; compounds of Table 1; read-out: EC30. It counts as cell-based. A digest of the protocol:
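Correction of the F508del trafficking defect is scored as forskolin (10 μM)/genistein (20 μM)-stimulated Cl^− efflux in NIH3T3 mouse fibroblasts after a 16 hr, 37° C. compound exposure. Depolarization was followed optically using voltage-sensing FRET dyes.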
With `C[C@@H]1CN(c2nc(-c3cccc4ccccc34)ccc2C(=O)NS(=O)(=O)c2ccc[nH]c2=O)C(C)(C)C1` [Compound 2007, 6-(1-naphthyl)-N-[(2-oxo-1H-pyridin-3-yl)sulfonyl]-2-[(4S)-2,2,4-trimethylpyrrolidin-1-yl]pyridine-3-carboxamide], the EC30 is under 3 µM.

In the case of `CC1CN(c2ncccc2C(=O)NS(=O)(=O)c2cccc(Nc3ccc(-c4ccccc4)cc3)n2)C(C)(C)C1` (stereo not drawn) [Compound 2023, N—[[6-(4-phenylanilino)-2-pyridyl]sulfonyl]-2-(2,2,4-trimethylpyrrolidin-1-yl)pyridine-3-carboxamide], the EC30 is under 3 µM.

As to `COC[C@@H]1CCCN1c1cccc(S(=O)(=O)NC(=O)c2cccnc2N2CC(C)CC2(C)C)n1` (stereo partly drawn) [Compound 2024, N—[[6-[(2S)-2-(methoxymethyl)pyrrolidin-1-yl]-2-pyridyl]sulfonyl]-2-(2,2,4-trimethylpyrrolidin-1-yl)pyridine-3-carboxamide], the EC30 fell in the range of 3 to 10 µM.

`CC1CN(c2ncc(-c3cccc4[nH]ncc34)cc2C(=O)NS(=O)(=O)c2cccc(N)n2)C(C)(C)C1` (stereo not drawn) [Compound 2157, N-[(6-amino-2-pyridyl)sulfonyl]-5-(1H-indazol-4-yl)-2-(2,2,4-trimethylpyrrolidin-1-yl)pyridine-3-carboxamide]: the EC30 is over 10 µM.

Regarding `CC1CN(c2ncccc2C(=O)NS(=O)(=O)c2cccc(NC3CCCCC3)n2)C(C)(C)C1` (stereo not drawn) [Compound 2250, N—[[6-(cyclohexylamino)-2-pyridyl]sulfonyl]-2-(2,2,4-trimethylpyrrolidin-1-yl)pyridine-3-carboxamide], the EC30 was under 3 µM.

In the case of `CC1CCCN(c2cccc(S(=O)(=O)NC(=O)c3cccnc3N3CC(C)CC3(C)C)n2)C1` (stereo not drawn) [Compound 2030, N—[[6-(3-methyl-1-piperidyl)-2-pyridyl]sulfonyl]-2-(2,2,4-trimethylpyrrolidin-1-yl)pyridine-3-carboxamide], the EC30 is under 3 µM.

As to `CC(CO)COc1ccn(-c2ccc(C(=O)NS(=O)(=O)c3cccnc3N)c(N3C[C@@H](C)CC3(C)C)n2)n1` (stereo partly drawn) [Compound 2192, N-[(2-amino-3-pyridyl)sulfonyl]-6-[3-(3-hydroxy-2-methyl-propoxy)pyrazol-1-yl]-2-[(4S)-2,2,4-trimethylpyrrolidin-1-yl]pyridine-3-carboxamide], the EC30 was under 3 µM.

Turning to `CC1CN(c2ncccc2C(=O)NS(=O)(=O)c2cccc(N3CCC(F)(F)C3)n2)C(C)(C)C1` (stereo not drawn) [Compound 2166, N—[[6-(3,3-difluoropyrrolidin-1-yl)-2-pyridyl]sulfonyl]-2-(2,2,4-trimethylpyrrolidin-1-yl)pyridine-3-carboxamide], the EC30 lay within 3 to 10 µM.

For `C[C@@H]1CN(c2nc(-c3ccccc3C#N)ccc2C(=O)NS(=O)(=O)c2cccnc2N)C(C)(C)C1` [Compound 2437, N-[(2-amino-3-pyridyl)sulfonyl]-6-(2-cyanophenyl)-2-[(4S)-2,2,4-trimethylpyrrolidin-1-yl]pyridine-3-carboxamide], the EC30 was under 3 µM.

In the case of `CC1CN(c2ncccc2C(=O)NS(=O)(=O)c2cccc(Oc3ccc(-n4cccc4)cc3)n2)C(C)(C)C1` (stereo not drawn) [Compound 2563, N—[[6-(4-pyrrol-1-ylphenoxy)-2-pyridyl]sulfonyl]-2-(2,2,4-trimethylpyrrolidin-1-yl)pyridine-3-carboxamide], the EC30 is under 3 µM.

`C[C@@H]1CN(c2nc(-c3ccccc3O)ccc2C(=O)NS(=O)(=O)c2cccnc2N)C(C)(C)C1` [Compound 2257, N-[(2-amino-3-pyridyl)sulfonyl]-6-(2-hydroxyphenyl)-2-[(4S)-2,2,4-trimethylpyrrolidin-1-yl]pyridine-3-carboxamide]: the 30% effect concentration (EC30) is under 3 µM.

Turning to `CC1CN(c2ncccc2C(=O)NS(=O)(=O)c2cccc(N3CC[C@H](F)C3)n2)C(C)(C)C1` (stereo partly drawn) [Compound 2393, N—[[6-[(3S)-3-fluoropyrrolidin-1-yl]-2-pyridyl]sulfonyl]-2-(2,2,4-trimethylpyrrolidin-1-yl)pyridine-3-carboxamide], the EC30 was in the range of 3 to 10 µM.

Take `COc1ccc(CNc2cccc(S(=O)(=O)NC(=O)c3cccnc3N3CC(C)CC3(C)C)n2)cc1` (stereo not drawn) [Compound 2579, N—[[6-[(4-methoxyphenyl)methylamino]-2-pyridyl]sulfonyl]-2-(2,2,4-trimethylpyrrolidin-1-yl)pyridine-3-carboxamide]: the EC30 is under 3 µM.

As for `C[C@@H]1CN(c2nc(-c3cc(F)c(F)cc3F)ccc2C(=O)NS(=O)(=O)c2cccnc2N)C(C)(C)C1` [Compound 2035, N-[(2-amino-3-pyridyl)sulfonyl]-6-(2,4,5-trifluorophenyl)-2-[(4S)-2,2,4-trimethylpyrrolidin-1-yl]pyridine-3-carboxamide], the EC30 was under 3 µM.

As to `CC1CN(c2ncccc2C(=O)NS(=O)(=O)c2cccc(Oc3ccc4c(c3)CCCC4=O)n2)C(C)(C)C1` (stereo not drawn) [Compound 2523, N—[[6-(1-oxotetralin-6-yl)oxy-2-pyridyl]sulfonyl]-2-(2,2,4-trimethylpyrrolidin-1-yl)pyridine-3-carboxamide], the EC30 was in the range of 3 to 10 µM.

For the molecule `CC1CN(c2ncccc2C(=O)NS(=O)(=O)c2cccc(OCC3COc4ccccc4C3)n2)C(C)(C)C1` (stereo not drawn) [Compound 2595, N—[[6-(chroman-3-ylmethoxy)-2-pyridyl]sulfonyl]-2-(2,2,4-trimethylpyrrolidin-1-yl)pyridine-3-carboxamide], the EC30 is under 3 µM.

Regarding `CC(C)COc1cc(F)cc(-c2nc(N3C[C@@H](C)CC3(C)C)c(C(=O)NS(=O)(=O)c3cccc(N)n3)cc2I)c1` [Compound 2009, N-[(6-amino-2-pyridyl)sulfonyl]-6-(3-fluoro-5-isobutoxy-phenyl)-5-iodo-2-[(4S)-2,2,4-trimethylpyrrolidin-1-yl]pyridine-3-carboxamide], the EC30 was under 3 µM.

For the molecule `CC1CN(c2ncccc2C(=O)NS(=O)(=O)c2cccc(NCc3ccc(C(C)C)cc3)n2)C(C)(C)C1` (stereo not drawn) [Compound 2187, N—[[6-[(4-isopropylphenyl)methylamino]-2-pyridyl]sulfonyl]-2-(2,2,4-trimethylpyrrolidin-1-yl)pyridine-3-carboxamide], the EC30 was under 3 µM.

For the molecule `Nc1cccc(S(=O)(=O)NC(=O)c2cccnc2N2CCCC(c3ccccc3)C2)n1` (single isomer, unassigned) [Compound 2615], the EC30 lay in the range of 3 to 10 µM.

In the case of `Cc1cc(-c2ccc(C(=O)NS(=O)(=O)c3cccc(N)n3)c(N3C[C@@H](C)CC3(C)C)n2)cnc1NC(C)C` [Compound 2685], the EC30 was under 3 µM.

For the molecule `CC1CN(c2ncc(-c3ccc(C#N)cc3)cc2C(=O)NS(=O)(=O)c2cccc(N)n2)C(C)(C)C1` (stereo not drawn) [Compound 2304, N-[(6-amino-2-pyridyl)sulfonyl]-5-(4-cyanophenyl)-2-(2,2,4-trimethylpyrrolidin-1-yl)pyridine-3-carboxamide], the EC30 was under 3 µM.

Still in this experiment, the particulars now being: Table 3; compounds of Table 1 as modulators of CFTR activity; protocol not stated.
Take `CC1CCN(c2nc(-c3cc(F)cc(OCC4CC4)c3)ccc2C(=O)NS(=O)(=O)c2ccc[nH]c2=O)CC1` [Compound 664, 6-[3-(cyclopropylmethoxy)-5-fluoro-phenyl]-2-(4-methyl-1-piperidyl)-N-[(2-oxo-1H-pyridin-3-yl)sulfonyl]pyridine-3-carboxamide]: the EC30 entry was “+++ (“+++” means <3 uM)”.

Regarding `CC(C)Oc1ccc(-c2ccc(C(=O)NS(=O)(=O)c3cccc(N)n3)c(N(C)CC3CC3)n2)cn1` [Compound 740, N-[(6-amino-2-pyridyl)sulfonyl]-2-[cyclopropylmethyl(methyl)amino]-6-(6-isopropoxy-3-pyridyl)pyridine-3-carboxamide], the EC30 entry is “++ (“++” means between 3 uM and 10 uM)”.

Take `COc1cc(F)ccc1-c1ccc(C(=O)NS(=O)(=O)c2ccc[nH]c2=O)c(Oc2c(C)cc(C)cc2C)n1` [Compound 608, 6-(4-fluoro-2-methoxy-phenyl)-N-[(2-oxo-1H-pyridin-3-yl)sulfonyl]-2-(2,4,6-trimethylphenoxy)pyridine-3-carboxamide]: the EC30 result is “++ (“++” means between 3 uM and 10 uM)”.

Take `Cc1cc(C)c(Oc2nc(-c3ccc(F)cc3F)ccc2C(=O)NS(=O)(=O)c2cccc(N)n2)c(C)c1` [Compound 439, N-[(6-amino-2-pyridyl)sulfonyl]-6-(2,4-difluorophenyl)-2-(2,4,6-trimethylphenoxy)pyridine-3-carboxamide]: the EC30 result is “+++ (“+++” means <3 uM)”.

As for `Cc1cc(C)c(Oc2nc(-n3ccc(C(F)(F)F)n3)ccc2C(=O)NS(=O)(=O)c2cccc(N)n2)c(C)c1` [Compound 676, N-[(6-amino-2-pyridyl)sulfonyl]-6-[3-(trifluoromethyl)pyrazol-1-yl]-2-(2,4,6-trimethylphenoxy)pyridine-3-carboxamide], the EC30 result is listed as “+++ (“+++” means <3 uM)”.

Consider `Cc1cc(C)c(Oc2nc(NC(C)(C)C)ccc2C(=O)NS(=O)(=O)c2cccc(N)n2)c(C)c1` [Compound 273, N-[(6-Amino-2-pyridyl)sulfonyl]-6-(tert-butylamino)-2-(2,4,6-trimethylphenoxy)pyridine-3-carboxamide], for which the EC30 result was “+++ (“+++” means <3 uM)”.

As to `CC1CN(c2nc(-c3ccc(NC(C)C)nc3)ccc2C(=O)NS(=O)(=O)c2cccc(N)n2)C(C)(C)C1` (stereo not drawn) [Compound 437, N-[(6-amino-2-pyridyl)sulfonyl]-6-[16-(isopropylamino)-3-pyridyl]-2-(2,2,4-trimethylpyrrolidin-1-yl)pyridine-3-carboxamide], the EC30 result was “+++ (“+++” means <3 uM)”.

With `COC1(C)CCN(c2nc(-c3cc(F)cc(OCC(C)C)c3)ccc2C(=O)NS(=O)(=O)c2ccn[nH]2)CC1` [Compound 774, 6-(3-fluoro-5-isobutoxy-phenyl)-2-(4-methoxy-4-methyl-1-piperidyl)-N-(1H-pyrazol-5-ylsulfonyl)pyridine-3-carboxamide], the EC30 result is on record as “+++ (“+++” means <3 uM)”.

As for `Cc1cc(C)c(Cn2c(C(=O)NS(=O)(=O)c3cccc(N)c3)cc3c(F)cccc32)c(C)c1` [Compound 181, N-(3-aminophenyl)sulfonyl-4-fluoro-1-[(2,4,6-trimethylphenyl)methyl]indole-2-carboxamide], the EC30 result is listed as “+++ (“+++” means <3 uM)”.

As a reminder, the EC30 is the concentration at which the effect reaches the 30% level.
